For 24 molecules, IC50 results are on record in US12391679B2, “Benzamide-substituted bicyclic imidazo- and pyrazolo-fused -pyridine, -pyrimide, and -pyridazine compounds for treatment of inflammatory diseases” (ONCO3R Therapeutics BV, priority 2019, dated 2025).

A word on the IC50: it is the concentration that gives 50% inhibition. Low readings indicate greater potency in that assay, high ones weaker potency in that assay.

Where only a bound is given, the exact number is not on record here.

Common to all, as to assay type: biochemical
One test deals with T1, SIK3 (Homo sapiens, UniProt Q9Y2K2).
T1 construct: purchased SignalChem S12-11G-100
T1 sequence (Q9Y2K2 59-365 limits assumed): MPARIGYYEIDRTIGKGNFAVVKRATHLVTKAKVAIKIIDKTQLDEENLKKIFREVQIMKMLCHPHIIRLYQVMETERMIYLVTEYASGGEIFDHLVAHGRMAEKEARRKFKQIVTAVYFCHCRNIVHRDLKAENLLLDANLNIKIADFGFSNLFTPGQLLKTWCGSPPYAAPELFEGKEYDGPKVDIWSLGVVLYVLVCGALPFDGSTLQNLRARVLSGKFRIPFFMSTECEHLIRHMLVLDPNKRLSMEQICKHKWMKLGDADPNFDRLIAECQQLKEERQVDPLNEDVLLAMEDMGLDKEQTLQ
Nature of the test: ADP-Glo kinase assay, SIK3. Put shortly:
(§1)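 Luminescent ADP-formation read-out: enzyme–substrate mix + ATP, 120 min RT; ATP depletion 40 min RT; ADP→ATP conversion with luciferase/luciferin 30 min RT. Controls: 1% DMSO (negative), 10 μM staurosporine final (positive).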
A general note: ADP-Glo turns the ADP formed in a reaction into a luminescent signal.

For the next test, the target named is T2, SIK1 (Homo sapiens, UniProt P57059).
T2 construct: purchased Carna Biosciences 02-131
T2 sequence (P57059 whole entry): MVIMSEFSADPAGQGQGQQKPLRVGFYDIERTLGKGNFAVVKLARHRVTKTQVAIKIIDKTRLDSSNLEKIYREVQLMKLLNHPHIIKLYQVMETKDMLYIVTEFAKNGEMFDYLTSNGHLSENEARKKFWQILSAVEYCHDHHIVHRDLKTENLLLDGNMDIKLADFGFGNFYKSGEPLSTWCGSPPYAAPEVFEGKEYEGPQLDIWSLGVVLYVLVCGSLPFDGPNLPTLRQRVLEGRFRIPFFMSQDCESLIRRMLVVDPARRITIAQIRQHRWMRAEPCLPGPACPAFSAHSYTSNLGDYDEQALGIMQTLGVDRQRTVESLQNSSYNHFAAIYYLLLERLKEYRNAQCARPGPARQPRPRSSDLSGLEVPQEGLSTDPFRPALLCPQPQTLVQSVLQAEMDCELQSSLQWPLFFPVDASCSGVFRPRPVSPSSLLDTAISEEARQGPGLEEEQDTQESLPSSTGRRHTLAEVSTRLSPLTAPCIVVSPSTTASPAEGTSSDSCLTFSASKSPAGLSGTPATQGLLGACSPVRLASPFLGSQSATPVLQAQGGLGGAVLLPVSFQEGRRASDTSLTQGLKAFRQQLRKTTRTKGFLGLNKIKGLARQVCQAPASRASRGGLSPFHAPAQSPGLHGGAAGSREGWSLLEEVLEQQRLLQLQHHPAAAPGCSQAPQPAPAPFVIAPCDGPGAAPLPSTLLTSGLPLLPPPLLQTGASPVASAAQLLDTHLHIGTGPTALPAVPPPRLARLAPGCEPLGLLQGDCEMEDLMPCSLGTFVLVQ
As to the kind of experiment: ADP-Glo kinase assay, SIK1. Put shortly: as §1

For a further test, the target named is T3, SIK2 (Homo sapiens, UniProt Q9H0K1).
T3 construct: purchased ThermoFisher Scientific PV4792
T3 sequence (Q9H0K1 whole entry): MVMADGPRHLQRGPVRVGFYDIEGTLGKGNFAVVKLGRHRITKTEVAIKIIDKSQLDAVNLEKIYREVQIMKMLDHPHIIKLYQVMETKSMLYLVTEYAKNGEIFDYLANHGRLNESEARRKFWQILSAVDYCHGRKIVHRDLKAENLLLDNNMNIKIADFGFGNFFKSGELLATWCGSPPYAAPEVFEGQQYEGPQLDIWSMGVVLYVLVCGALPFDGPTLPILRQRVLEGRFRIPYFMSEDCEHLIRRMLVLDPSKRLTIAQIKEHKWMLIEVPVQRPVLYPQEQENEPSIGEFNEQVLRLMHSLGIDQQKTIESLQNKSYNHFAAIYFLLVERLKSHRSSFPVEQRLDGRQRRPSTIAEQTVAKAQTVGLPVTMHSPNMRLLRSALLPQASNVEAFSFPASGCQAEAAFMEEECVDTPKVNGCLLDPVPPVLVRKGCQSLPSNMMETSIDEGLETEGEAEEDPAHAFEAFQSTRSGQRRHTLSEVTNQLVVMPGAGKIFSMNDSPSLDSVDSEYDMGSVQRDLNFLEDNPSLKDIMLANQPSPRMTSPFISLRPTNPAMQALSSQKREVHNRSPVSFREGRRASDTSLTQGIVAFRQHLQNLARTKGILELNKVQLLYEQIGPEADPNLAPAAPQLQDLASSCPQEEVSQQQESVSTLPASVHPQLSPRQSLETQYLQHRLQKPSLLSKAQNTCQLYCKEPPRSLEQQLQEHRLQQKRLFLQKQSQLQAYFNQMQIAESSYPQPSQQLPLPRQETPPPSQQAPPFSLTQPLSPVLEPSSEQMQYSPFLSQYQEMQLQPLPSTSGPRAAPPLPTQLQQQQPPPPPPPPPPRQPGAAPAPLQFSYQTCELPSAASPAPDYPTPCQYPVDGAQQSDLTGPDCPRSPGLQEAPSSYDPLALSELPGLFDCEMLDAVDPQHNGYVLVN
Nature of the test: ADP-Glo kinase assay, SIK2. Put shortly: as §1

With `COc1cc(-c2cnc3cc(C(C)NC(C)C)ccn23)cc(OC(F)F)c1C(=O)NC1CC1` (stereo not drawn) [Cpd 149, N-cyclopropyl-2-(difluoromethoxy)-4-[7-[1-(isopropylamino)ethyl]imidazo[1,2-a]pyridin-3-yl]-6-methoxy-benzamide], the IC50 against SIK3 was 10 to 100 nM; at SIK1, greater than 500 nM; on SIK2, greater than 500 nM.
Turning to `COc1cc(-c2cnc3cc(C4CN(C(=O)OC(C)(C)C)C4)c(F)cn23)cc(OC(F)F)c1C(=O)NC1CC1` [Cpd 158, tert-butyl 3-[3-[4-(cyclopropylcarbamoyl)-3-(difluoromethoxy)-5-methoxy-phenyl]-6-fluoro-imidazo[1,2-a]pyridin-7-yl]azetidine-1-carboxylate], the IC50 on SIK3 lay within 10 to 100 nM; on SIK1, 100 to 500 nM; against SIK2, 100 to 500 nM.
In the case of `COc1cc(-c2cnc3cc(C(C)(O)Cn4cncn4)ccn23)cc(OC(F)F)c1C(=O)NC1CC1` (stereo not drawn) [Cpd 194, N-cyclopropyl-2-(difluoromethoxy)-4-[7-[1-hydroxy-1-methyl-2-(1,2,4-triazol-1-yl)ethyl]imidazo[1,2-a]pyridin-3-yl]-6-methoxy-benzamide], the IC50 at SIK3 is 100 to 500 nM; against SIK1, greater than 500 nM; on SIK2, greater than 500 nM.
With `COc1cc(-c2cnc3cc(C(C)(C)C#N)ccn23)cc(OC(F)F)c1C(=O)N1CC(O)(C(F)(F)F)C1` [Cpd 75, 2-[3-[3-(difluoromethoxy)-4-[3-hydroxy-3-(trifluoromethyl)azetidine-1-carbonyl]-5-methoxy-phenyl]imidazo[1,2-a]pyridin-7-yl]-2-methyl-propanenitrile], the results for the IC50 against SIK3, at SIK1 and against SIK2 were 0.01 to 10 nM, greater than 500 nM and 100 to 500 nM, respectively.
The corresponding values for `COc1cc(-c2cnc3cc(C(C)N4CC(F)(F)C4)ccn23)cc(OC(F)F)c1C(=O)NC1CC1` (stereo not drawn) [Cpd 156, N-cyclopropyl-4-[7-[1-(3,3-difluoroazetidin-1-yl)ethyl]imidazo[1,2-a]pyridin-3-yl]-2-(difluoromethoxy)-6-methoxy-benzamide] are 10 to 100 nM, greater than 500 nM and greater than 500 nM.
Consider `COc1cc(-c2cnn3cc(C(C)(C)S(C)(=O)=O)ccc23)cc(OC(F)F)c1C(=O)N[C@@H]1C[C@@H]1F` [Cpd 246, 2-(difluoromethoxy)-N-[(1R,2S)-2-fluorocyclopropyl]-6-methoxy-4-[6-(1-methyl-1-methylsulfonyl-ethyl)pyrazolo[1,5-a]pyridin-3-yl]benzamide], for which the IC50 is 10 to 100 nM on SIK3, greater than 500 nM at SIK1 and greater than 500 nM at SIK2.
On to `COc1cc(-c2cnc3cc(C4CN(C)C4)ccn23)cc(OC(F)F)c1C(=O)NC1CC1` [Cpd 91, N-cyclopropyl-2-(difluoromethoxy)-6-methoxy-4-[7-(1-methylazetidin-3-yl)imidazo[1,2-a]pyridin-3-yl]benzamide], for which the IC50 against SIK3 was 10 to 100 nM; at SIK1, greater than 500 nM; against SIK2, 100 to 500 nM.
The corresponding values for `COc1cc(-c2cnc3cc(C(C)(C)C#N)ccn23)cc(OC(F)F)c1C(=O)NCCCO` [Cpd 44, 4-[7-(1-cyano-1-methyl-ethyl)imidazo[1,2-a]pyridin-3-yl]-2-(difluoromethoxy)-N-(3-hydroxypropyl)-6-methoxy-benzamide] are 10 to 100 nM, greater than 500 nM and greater than 500 nM.
As to `C=CCC(C#N)(CC=C)c1ccn2c(-c3cc(OC)c(C(=O)NC4CC4)c(OC(F)F)c3)cnc2c1` [Cpd 36, 4-[7-(1-allyl-1-cyano-but-3-enyl)imidazo[1,2-a]pyridin-3-yl]-N-cyclopropyl-2-(difluoromethoxy)-6-methoxy-benzamide], the results for the IC50 against SIK3, against SIK1 and at SIK2 were 10 to 100 nM, greater than 500 nM and greater than 500 nM, respectively.
As for `COc1cc(-c2cnn3cc(C(C)(C)C#N)ccc23)cc(OCCO)c1C(=O)NC1CC1` [Cpd 263, 4-[6-(1-cyano-1-methyl-ethyl)pyrazolo[1,5-a]pyridin-3-yl]-N-cyclopropyl-2-(2-hydroxyethoxy)-6-methoxy-benzamide], the IC50 was 100 to 500 nM at SIK3, greater than 500 nM at SIK1 and greater than 500 nM on SIK2.
For `COc1cc(-c2cnc3cc(C4(C#N)CNC4)ccn23)cc(OC(F)F)c1C(=O)NC1CC1` [Cpd 110, 4-[7-(3-cyanoazetidin-3-yl)imidazo[1,2-a]pyridin-3-yl]-N-cyclopropyl-2-(difluoromethoxy)-6-methoxy-benzamide], the IC50 at SIK3 was 10 to 100 nM; against SIK1, greater than 500 nM; against SIK2 it was greater than 500 nM.
Consider `COc1cc(-c2cnc3cc(C4CN(C(=O)OC(C)(C)C)C4)ccn23)cc(OC(F)F)c1C(=O)NC1CC1` [Cpd 59, tert-butyl 3-[3-[4-(cyclopropylcarbamoyl)-3-(difluoromethoxy)-5-methoxy-phenyl]imidazo[1,2-a]pyridin-7-yl]azetidine-1-carboxylate], for which the values for the IC50 against SIK3, on SIK1 and against SIK2 were 0.01 to 10 nM, 10 to 100 nM and 10 to 100 nM, respectively.
On to `COc1cc(-c2cnc3cc(C4CCN(C(=O)OC(C)(C)C)CC4)ccn23)cc(OC(F)F)c1C(=O)NC1CC1` [Cpd 60, tert-butyl 4-[3-[4-(cyclopropylcarbamoyl)-3-(difluoromethoxy)-5-methoxy-phenyl]imidazo[1,2-a]pyridin-7-yl]piperidine-1-carboxylate], for which the IC50 against SIK3 lay in the range of 0.01 to 10 nM; against SIK1, 100 to 500 nM; against SIK2 it was 10 to 100 nM.
`COc1cc(-c2cnc3cc(C(C)(C)C#N)ccn23)cc(OC(F)F)c1C(=O)NC(C)C1CC1` (stereo not drawn) [Cpd 101, 4-[7-(1-cyano-1-methyl-ethyl)imidazo[1,2-a]pyridin-3-yl]-N-(1-cyclopropylethyl)-2-(difluoromethoxy)-6-methoxy-benzamide]: the IC50 at SIK3 is 100 to 500 nM; on SIK1 it was greater than 500 nM; at SIK2 it was greater than 500 nM.
`COc1cc(-c2cnc3cc(C(C)(C)C#N)ccn23)cc(OC(F)F)c1C(=O)N1CC(N)C1` [Cpd 103, 2-[3-[4-(3-aminoazetidine-1-carbonyl)-3-(difluoromethoxy)-5-methoxy-phenyl]imidazo[1,2-a]pyridin-7-yl]-2-methyl-propanenitrile]: the IC50 on SIK3 was 10 to 100 nM; against SIK1, greater than 500 nM; against SIK2, greater than 500 nM.
As for `COc1cc(-c2cnn3cc(C(C)(C)C(N)=O)ccc23)cc(OC(F)F)c1C(=O)NC1CC1` [Cpd 244, 4-[6-(2-amino-1,1-dimethyl-2-oxo-ethyl)pyrazolo[1,5-a]pyridin-3-yl]-N-cyclopropyl-2-(difluoromethoxy)-6-methoxy-benzamide], the figures for the IC50 at SIK3, against SIK1 and against SIK2 were 10 to 100 nM, greater than 500 nM and greater than 500 nM, respectively.
Regarding `CCC(O)(CC)c1ccn2c(-c3cc(OC)c(C(=O)NC4CC4)c(OC(F)F)c3)cnc2c1` [Cpd 124, N-cyclopropyl-2-(difluoromethoxy)-4-[7-(1-ethyl-1-hydroxy-propyl)imidazo[1,2-a]pyridin-3-yl]-6-methoxy-benzamide], the IC50 at SIK3 is 100 to 500 nM; on SIK1, greater than 500 nM; against SIK2 it was greater than 500 nM.
`COc1cc(-c2cnc3cc(C(C)(C)C(C)=O)ccn23)cc(OC)c1C(=O)NCC(F)(F)F` [Cpd 56, 4-[7-(1,1-dimethyl-2-oxo-propyl)imidazo[1,2-a]pyridin-3-yl]-2,6-dimethoxy-N-(2,2,2-trifluoroethyl)benzamide]: the figures for the IC50 against SIK3, on SIK1 and against SIK2 were 10 to 100 nM, greater than 500 nM and greater than 500 nM, respectively.
On to `COc1cc(-c2cnc3cc(C(C)N(C)CCO)ccn23)cc(OC(F)F)c1C(=O)NC1CC1` (stereo not drawn) [Cpd 154, N-cyclopropyl-2-(difluoromethoxy)-4-[7-[1-[2-hydroxyethyl(methyl)amino]ethyl]imidazo[1,2-a]pyridin-3-yl]-6-methoxy-benzamide], for which the IC50 is 10 to 100 nM against SIK3, greater than 500 nM at SIK1 and greater than 500 nM against SIK2.
As to `COCCNC(=O)C1(c2ccn3c(-c4cc(OC)c(C(=O)NC5CC5)c(OC(F)F)c4)cnc3c2)CC1` [Cpd 142, N-cyclopropyl-2-(difluoromethoxy)-6-methoxy-4-[7-[1-(2-methoxyethylcarbamoyl)cyclopropyl]imidazo[1,2-a]pyridin-3-yl]benzamide], the IC50 against SIK3 is 10 to 100 nM; at SIK1, greater than 500 nM; at SIK2, greater than 500 nM.
Take `CCN(CC)C(=O)C1(c2ccn3c(-c4cc(OC)c(C(=O)NC5CC5)c(OC(F)F)c4)cnc3c2)CC1` [Cpd 143, N-cyclopropyl-4-[7-[1-(diethylcarbamoyl)cyclopropyl]imidazo[1,2-a]pyridin-3-yl]-2-(difluoromethoxy)-6-methoxy-benzamide]: the IC50 was 100 to 500 nM against SIK3, greater than 500 nM against SIK1 and greater than 500 nM on SIK2.
Consider `COc1cc(-c2cnc3cc(C4(C#N)CN(C(C)=O)C4)ccn23)cc(OC(F)F)c1C(=O)NC1CC1` [Cpd 122, 4-[7-(1-acetyl-3-cyano-azetidin-3-yl)imidazo[1,2-a]pyridin-3-yl]-N-cyclopropyl-2-(difluoromethoxy)-6-methoxy-benzamide], for which the IC50 is 10 to 100 nM on SIK3, greater than 500 nM against SIK1 and greater than 500 nM on SIK2.
Take `COc1cn2c(-c3cc(OC)c(C(=O)NC4CC4)c(OC(F)F)c3)cnc2cc1C1COC1` [Cpd 215, N-cyclopropyl-2-(difluoromethoxy)-6-methoxy-4-[6-methoxy-7-(oxetan-3-yl)imidazo[1,2-a]pyridin-3-yl]benzamide]: the IC50 was 10 to 100 nM on SIK3, 100 to 500 nM against SIK1 and 100 to 500 nM at SIK2.
Consider `COc1cc(-c2cnc3cc(C4COCCN4C(=O)OC(C)(C)C)ccn23)cc(OC(F)F)c1C(=O)NC1CC1` (stereo not drawn) [Cpd 186, tert-butyl 3-[3-[4-(cyclopropylcarbamoyl)-3-(difluoromethoxy)-5-methoxy-phenyl]imidazo[1,2-a]pyridin-7-yl]morpholine-4-carboxylate], for which the IC50 on SIK3, on SIK1 and at SIK2 was greater than 500 nM in each case.
